Measurements taken from US20200405697A1, “Antitumor Agent” (Taiho Pharmaceutical Co., Ltd, priority 2017, published 2020).
pIC50: −log10 of the molar value.

Target: T1, human RNR (histidine tagged human M1 and human M2 proteins) (Homo sapiens, UniProt P23921)
T1 construct: made in house; host or cells: Escherichia coli
T1 sequence (P23921 1-792): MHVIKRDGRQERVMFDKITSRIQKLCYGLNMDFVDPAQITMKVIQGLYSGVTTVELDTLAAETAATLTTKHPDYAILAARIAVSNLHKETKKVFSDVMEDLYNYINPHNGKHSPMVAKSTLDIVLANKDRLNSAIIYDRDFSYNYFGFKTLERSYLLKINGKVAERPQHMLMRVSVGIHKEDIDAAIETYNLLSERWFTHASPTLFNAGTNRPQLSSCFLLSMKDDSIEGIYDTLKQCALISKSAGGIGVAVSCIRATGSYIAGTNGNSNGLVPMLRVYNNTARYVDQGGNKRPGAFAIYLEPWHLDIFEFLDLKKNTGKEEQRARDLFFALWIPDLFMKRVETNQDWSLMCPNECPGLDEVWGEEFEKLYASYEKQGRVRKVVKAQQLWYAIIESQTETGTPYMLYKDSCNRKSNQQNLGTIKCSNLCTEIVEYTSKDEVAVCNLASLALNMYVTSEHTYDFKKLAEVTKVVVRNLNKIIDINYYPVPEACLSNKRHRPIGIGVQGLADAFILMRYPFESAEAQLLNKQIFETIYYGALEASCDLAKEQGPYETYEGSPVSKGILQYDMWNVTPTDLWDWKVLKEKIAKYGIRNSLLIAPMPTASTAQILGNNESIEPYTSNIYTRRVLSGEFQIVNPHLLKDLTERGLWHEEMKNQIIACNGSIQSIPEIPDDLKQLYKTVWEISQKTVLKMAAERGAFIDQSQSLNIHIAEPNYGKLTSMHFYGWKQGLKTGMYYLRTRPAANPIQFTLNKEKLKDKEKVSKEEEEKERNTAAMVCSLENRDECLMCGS
Assay: Human RNR inhibition effect (dCDP formation from CDP)
Assay type: biochemical
Conditions: 10 μM CDP, 37° C. for 30 minutes, read-out: RNR inhibitory activity IC50
How it was run: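 His-tagged human M1 (isoform 1) and N-terminal 59-aa-truncated M2 (isoform 2), E. coli-expressed, Ni-purified, preincubated 20 min with compound (1% DMSO). Reaction with 10 μM CDP, 2 mM ATP, 0.24 mM NADPH, 6 mM DTT, 4 mM Mg acetate, 100 mM KCl, 50 mM HEPES pH 7.2, 30 min at 37° C. dCDP formed quantified by reverse-phase HPLC after heat stop.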

Row | SMILES | pIC50
1 | Cc1c(C(F)(F)F)ccc(F)c1[C@@H](C)[C@H](NS(=O)(=O)c1ccc(Cl)cc1C(N)=O)c1n[nH]c(=O)o1 [Example 27, 5-chloro-2-(N-((1S,2R)-2-(6-fluoro-2-methyl-3-(trifluoromethyl)phenyl)-1-(5-oxo-4,5-dihydro-1,3,4-oxadiazol-2-yl)propyl)sulfamoyl)benzamide] | 6.26
2 | COc1cc(Cl)ccc1S(=O)(=O)N[C@H](c1n[nH]c(=O)o1)[C@H](C)c1c(F)ccc(C#N)c1C [Example 104, 4-chloro-N-((1S,2R)-2-(3-cyano-6-fluoro-2-methylphenyl)-1-(5-oxo-4,5-dihydro-1,3,4-oxadiazol-2-yl)propyl)-2-methoxybenzenesulfonamide] | 6.08
3 | Cc1ccc(F)c([C@@H](C)[C@H](NS(=O)(=O)c2c(F)cccc2F)c2n[nH]c(=O)o2)c1C [Example 110, 2,6-difluoro-N-((1S,2R)-2-(6-fluoro-2,3-dimethylphenyl)-1-(5-oxo-4,5-dihydro-1,3,4-oxadiazol-2-yl)propyl)benzenesulfonamide] | 6.02
4 | Cc1ccc(F)c([C@@H](C)[C@H](NS(=O)(=O)c2cc(F)c(Cl)cc2C(N)=O)c2n[nH]c(=O)o2)c1C [Example 255, 5-chloro-4-fluoro-2-(N-((1S,2R)-2-(6-fluoro-2,3-dimethylphenyl)-1-(5-oxo-4,5-dihydro-1,3,4-oxadiazol-2-yl)propyl)sulfamoyl)benzamide] | 6.92
5 | Cc1ccc(F)c([C@@H](C)[C@H](NS(=O)(=O)c2cc3c(cc2C(N)=O)OCCO3)c2n[nH]c(=O)o2)c1C [Example 261, 7-(N-((1S,2R)-2-(6-fluoro-2,3-dimethylphenyl)-1-(5-oxo-4,5-dihydro-1,3,4-oxadiazol-2-yl)propyl)sulfamoyl)-2,3-dihydrobenzo[b][1,4]dioxin-6-carboxamide] | 7.05
6 | Cc1ccc(F)c([C@@H](C)[C@H](NS(=O)(=O)c2ccc(Cl)cc2C(C)O)c2n[nH]c(=O)o2)c1C (stereo partly drawn) [Example 236, 4-chloro-N-((1S,2R)-2-(6-fluoro-2,3-dimethylphenyl)-1-(5-oxo-4,5-dihydro-1,3,4-oxadiazol-2-yl)propyl)-2-(1-hydroxyethyl)benzenesulfonamide] | 6.42
7 | COc1cc(Cl)ccc1S(=O)(=O)N[C@H](c1n[nH]c(=O)o1)[C@H](C)c1c(F)ccc(-c2cccnc2)c1C [Example 300, 4-chloro-N-((1S,2R)-2-(6-fluoro-2-methyl-3-(pyridin-3-yl)phenyl)-1-(5-oxo-4,5-dihydro-1,3,4-oxadiazol-2-yl)propyl)-2-methoxybenzenesulfonamide] | 6.47
8 | Cc1ccc(F)c([C@@H](C)[C@H](NS(=O)(=O)c2ccc(F)c3c2OCCC3O)c2n[nH]c(=O)o2)c1C (stereo partly drawn) [Example 241, 5-fluoro-N-((1S,2R)-2-(6-fluoro-2,3-dimethylphenyl)-1-(5-oxo-4,5-dihydro-1,3,4-oxadiazol-2-yl)propyl)-4-hydroxychroman-8-sulfonamide] | 6.85
9 | Cc1cc(F)c(F)c([C@@H](C)[C@H](NS(=O)(=O)c2ccc(Cl)cc2C(N)=O)c2n[nH]c(=O)o2)c1C [Example 13, 5-chloro-2-(N-((1S,2R)-2-(2,3-difluoro-5,6-dimethylphenyl)-1-(5-oxo-4,5-dihydro-1,3,4-oxadiazol-2-yl)propyl)sulfamoyl)benzamide] | 6.85
10 | CCn1cc(-c2ccc(F)c([C@@H](C)[C@H](NS(=O)(=O)c3ccc(Cl)cc3OC)c3n[nH]c(=O)o3)c2C)cn1 [Example 310, 4-chloro-N-((1S,2R)-2-(3-(1-ethyl-1H-pyrazol-4-yl)-6-fluoro-2-methylphenyl)-1-(5-oxo-4,5-dihydro-1,3,4-oxadiazol-2-yl)propyl)-2-methoxybenzenesulfonamide] | 6.77
11 | Cc1cccc(F)c1[C@H](C)[C@H](NS(=O)(=O)c1ccc(Cl)cc1C(N)=O)c1n[nH]c(=O)o1 [Example 23, 5-chloro-2-(N-((1S,2S)-2-(2-fluoro-6-methylphenyl)-1-(5-oxo-4,5-dihydro-1,3,4-oxadiazol-2-yl)propyl)sulfamoyl)benzainide] | 6.13
12 | Cc1ccc(F)c([C@@H](C)[C@H](NS(=O)(=O)c2ccc(C(F)(F)F)c3c2OCCC3O)c2n[nH]c(=O)o2)c1C (single isomer, unassigned) [Example 244B] | 6.66
13 | [2H]C([2H])([2H])C1(O)CCOc2c(S(=O)(=O)N[C@H](c3n[nH]c(=O)o3)[C@H](C)c3c(F)ccc(C)c3C)ccc(Cl)c21 (single isomer, unassigned) [Example 200B] | 7.10
14 | Cc1ccc(F)c([C@@H](C)[C@H](NS(=O)(=O)c2ccc3[nH]ncc3c2)c2n[nH]c(=O)o2)c1C [Example 182, N-((1S,2R)-2-(6-fluoro-2,3-dimethylphenyl)-1-(5-oxo-4,5-dihydro-1,3,4-oxadiazol-2-yl)propyl)-1H-indazole-5-sulfonamide] | 6.39
15 | Cc1ccc(F)c([C@@H](C)[C@H](NS(=O)(=O)c2c(F)cc(Cl)cc2F)c2n[nH]c(=O)o2)c1C [Example 111, 4-chloro-2,6-difluoro-N-((1S,2R)-2-(6-fluoro-2,3-dimethylphenyl)-1-(5-oxo-4,5-dihydro-1,3,4-oxadiazol-2-yl)propyl)benzenesulfonamide] | 6.57
16 | CC(=O)OC1(C(F)(F)F)CCOc2c1cccc2S(=O)(=O)N[C@H](c1n[nH]c(=O)o1)[C@H](C)c1c(F)ccc(C)c1C (stereo partly drawn) [Example 106, 8-(N-((1S,2R)-2-(6-fluoro-2,3-dimethylphenyl)-1-(5-oxo-4,5-dihydro-1,3,4-oxadiazol-2-yl)propyl)sulfamoyl)-4-(tifluoromethyl)chroman-4-ylacetate] | 6.57
17 | Cc1ccc(F)c([C@@H](C)[C@H](NS(=O)(=O)c2ccc(Cl)cc2C(N)=O)c2n[nH]c(=O)o2)c1Cl [Example 17, 5-chloro-2-(N-((1S)-2-(2-chloro-6-fluoro-3-methylphenyl)-1-(5-oxo-4,5-dihydro-1,3,4-oxadiazol-2-yl)propyl)sulfamoyl)benzamide] | 6.30
18 | Cc1ccc(F)c([C@@H](C)[C@H](NS(=O)(=O)c2cccc3c2OCCO3)c2n[nH]c(=O)o2)c1C [Example 164, N-((1S,2R)-2-(6-fluoro-2,3-dimethylphenyl)-1-(5-oxo-4,5-dihydro-1,3,4-oxadiazol-2-yl)propyl)-2,3-dihydrobenzo[b][1,4]dioxin-5-sulfonamide] | 6.48
19 | Cc1ccc(F)c([C@@H](C)[C@H](NS(=O)(=O)c2ccc(Cl)cc2OC(F)F)c2n[nH]c(=O)o2)c1C [Example 146, 4-chloro-2-(difluoromethoxy)-N-((1S,2R)-2-(6-fluoro-2,3-dimethylphenyl)-1-(5-oxo-4,5-dihydro-1,3,4-oxadiazol-2-yl)propyl)benzenesulfonamide] | 6.59
20 | COc1cc(Cl)ccc1S(=O)(=O)N[C@H](c1n[nH]c(=O)o1)C(O)c1c(F)ccc(C)c1C (mixture of isomers) [Example 290, 4-chloro-N-((1S)-2-(6-fluoro-2,3-dimethylphenyl)-2-hydroxy-1-(5-oxo-4,5-dihydro-1,3,4-oxadiazol-2-yl)ethyl)-2-methoxybenzenesulfonamide] | 6.08
21 | Cc1c(Cl)ccc(F)c1[C@@H](C)[C@H](NS(=O)(=O)c1ccc(Cl)c2c1OCCN2C)c1n[nH]c(=O)o1 [Example 289, 5-chloro-N-((1S,2R)-2-(3-chloro-6-fluoro-2-methylphenyl)-1-(5-oxo-4,5-dihydro-1,3,4-oxadiazol-2-yl)propyl)-4-methyl-3,4-dihydro-2H-benzo[b][1,4]oxazine-8-sulfonamide] | 6.89
22 | Cc1ccc(F)c([C@@H](C)[C@H](NS(=O)(=O)c2ccc(Cl)c(C(=O)N3CCC4(CC3)COC4)n2)c2n[nH]c(=O)o2)c1C [Example 156, 5-chloro-N-((1S,2R)-2-(6-fluoro-2,3-dimethylphenyl)-1-(5-oxo-4,5-dihydro-1,3,4-oxadiazol-2-yl)propyl)-6-(2-oxa-7-azaspiro[3.5]nonane-7-carbonyl)pyridine-2-sulfonamide] | 7.10
23 | Cc1ccc(F)c([C@@H](C)[C@H](NS(=O)(=O)c2ccc(Cl)c(C(C)(C)O)n2)c2n[nH]c(=O)o2)c1C [Example 193, 5-chloro-N-((1S,2R)-2-(6-fluoro-2,3-dimethylphenyl)-1-(5-oxo-4,5-dihydro-1,3,4-oxadiazol-2-yl)propyl)-6-(2-hydroxypropan-2-yl)pyridine-2-sulfonamide] | 7.05
24 | Cc1ccc(F)c([C@@H](C)[C@H](NS(=O)(=O)c2cc([N+](=O)[O-])c(Cl)cc2C(N)=O)c2n[nH]c(=O)o2)c1C [Example 262, 5-chloro-2-(N-((1S,2R)-2-(6-fluoro-2,3-dimethylphenyl)-1-(5-oxo-4,5-dihydro-1,3,4-oxadiazol-2-yl)propyl)sulfamoyl)-4-nitrobenzamide] | 6.89
